Earlier results as cited in PubChem BioAssay AID1259409 (Chemical Carcinogenesis Research Information System (CCRIS), 2018).
“And” between values parts separate entries of the source, which are not always exact repeats. Equal entries are not always repeated.

Tested on: rodent chemically induced tumor inhibition, incidence and multiplicity
Test: CCRIS tumor inhibitor studies

O=c1c(-c2ccc(O)cc2)coc2cc(O)cc(O)c12
tumour outcome (control, treated, inhibition, significance) (Carcinogen: 7,12-DIMETHYLBENZ[A]ANTHRACENE (57-97-6), Dose [Inhibitor]: 140 MG/KG DIET FOR 17 WKS (STUDY DURATION: 17 WKS), Route [Inhibitor]: DIET, Species: RAT, Strain/Sex: SPRAGUE-DAWLEY/FEMALE (20,18)/(20,19), Target Tissue: Type of Lesion: MAMMARY, Dose [Carcinogen]: 12.5 MG ONCE 1 WK AFTER START OF DIET (STUDY DURATION: 17 WKS)): 95%, 85%, 11%, p=0.408 | tumour outcome (control, treated, inhibition, significance) (Carcinogen: 7,12-DIMETHYLBENZ[A]ANTHRACENE [57-97-6], Dose [Inhibitor]: 20 UG/L IN 0.05 ML PEANUT OIL 2X/WK FOR 2 WK BEGINNING AT 7 D OF AGE (STUDY DURATION: 24 WK), Route [Inhibitor]: SUBCUTANEOUS, Species: RAT, Strain/Sex: SPRAGUE-DAWLEY/FEMALE, Target Tissue: Type of Lesion: MAMMARY GLAND: TUMOR, Dose [Carcinogen]: 10 MG IN 1 ML PEANUT OIL ONCE AT 45 D OF AGE (STUDY DURATION: 24 WK), Promoter: NONE): 17/30 (57%), 13/30 (43%), 25%, not significant | tumour outcome (control, treated, inhibition, significance) (Carcinogen: 7,12-DIMETHYLBENZ[A]ANTHRACENE, 57-97-6, Dose [Inhibitor]: 0, 25 PPM IN DIET FOR 50 WK BEGINNING 1 WK POST-CARCINOGEN DOSE (STUDY DURATION: 51 WK), Route [Inhibitor]: ORAL, Species: RAT, Strain/Sex: SPRAGUE-DAWLEY/FEMALE, Target Tissue: Type of Lesion: OVARY: ADENOCARCINOMA, Dose [Carcinogen]: 0.01 ML OF 0.5% DMBA IN OLIVE OIL INTO THE LEFT OVARY, ONCE, UNDER PENTOBARBITAL ANESTHESIA, Promoter: NONE USED): 7/20 (35%), 1/20 (5%), 86%, p=0.02 | tumour outcome (control, treated, inhibition, significance) (Carcinogen: 7,12-DIMETHYLBENZ[A]ANTHRACENE, 57-97-6, Dose [Inhibitor]: 0, 250 PPM IN DIET FOR 50 WK BEGINNING 1 WK POST-CARCINOGEN DOSE (STUDY DURATION: 51 WK), Route [Inhibitor]: ORAL, Species: RAT, Strain/Sex: SPRAGUE-DAWLEY/FEMALE, Target Tissue: Type of Lesion: OVARY: ADENOCARCINOMA, Dose [Carcinogen]: 0.01 ML OF 0.5% DMBA IN OLIVE OIL INTO THE LEFT OVARY, ONCE, UNDER PENTOBARBITAL ANESTHESIA, Promoter: NONE USED): 7/20 (35%), 0/20 (0%), 100%, p=0.0042 | tumour outcome (control, treated, inhibition, significance) (Carcinogen: 7,12-DIMETHYLBENZ[A]ANTHRACENE, 57-97-6, Dose [Inhibitor]: 0, 500 UG/G BW ONCE ON DAYS 16, 18 AND 20 OF AGE (STUDY DURATION: 200 D), Route [Inhibitor]: SUBCUTANEOUS, Species: RAT, Strain/Sex: SPRAGUE-DAWLEY/FEMALE, Target Tissue: Type of Lesion: MAMMARY GLAND: TUMOR, Dose [Carcinogen]: 80 UG/G BW IN SESAME OIL ONCE AT 50 DAYS OF AGE, Promoter: NONE USED): 92%, 85%, 8%, not significant | outcome (Carcinogen: Dimethylbenzanthracene, 57-97-6, Dose [Inhibitor]: 10 mg/kg bw/day, suspended in distilled water daily by gavage, dose duration 12 wk, study duration 18 wk, Route [Inhibitor]: Oral, Species: Hamster, Strain/Sex: Syrian golden/Male, Target Tissue: Type of Lesion: Oral cavity, Dose [Carcinogen]: 100 ul of 0.5% DMBA in mineral oil applied with a paint brush 3 times/wk for 6 wk, Promoter: None): 15/28 (53%), 11/27 (40.7%), not significant | tumour outcome (control, treated, inhibition, significance) (Carcinogen: N-METHYL-N'-NITRO-N-NITROSOGUANADINE, 70-25-7, Dose [Inhibitor]: 0, 15 MG/KG 1/2 D FOR 26 WK BEGINNING 1 WK POST CARCINOGEN TREATMENT (STUDY DURATION: 52 WK), Route [Inhibitor]: SUBCUTANEOUS, Species: RAT, Strain/Sex: WISTAR/MALE, Target Tissue: Type of Lesion: STOMACH: ADENOCARCINOMA, Dose [Carcinogen]: 25 UG/ML IN DRINKING WATER FOR 25 WK, Promoter: SODIUM CHLORIDE, 7647-14-5): 18/20 (90%), 12/20 (60%), 33%, not significant | tumour outcome (control, treated, inhibition, significance) (Carcinogen: N-METHYL-N-NITROSOUREA, 684-93-5, Dose [Inhibitor]: 0, 1 MG/30 G BW 1/4 WK FOR 25 WK BEGINNING 5 WK POST CARCINOGEN TREATMENT (STUDY DURATION: 30 WK), Route [Inhibitor]: SUBCUTANEOUS, Species: MOUSE, Strain/Sex: ICR/FEMALE, Target Tissue: Type of Lesion: UTERUS (LEFT): ADENOCARCINOMA, Dose [Carcinogen]: 0.1 MG/KG BW INJECTED INTO LEFT UTERINE TUBE ONCE): 3/26 (11%), 0/15 (0%), 100%, not significant | tumour outcome (control, treated, inhibition, significance) (Carcinogen: N-METHYL-N-NITROSOUREA, 684-93-5, Dose [Inhibitor]: 0, 1 MG/30 G BW 1/4 WK FOR 25 WK BEGINNING 5 WK POST CARCINOGEN TREATMENT (STUDY DURATION: 30 WK), Route [Inhibitor]: SUBCUTANEOUS, Species: MOUSE, Strain/Sex: ICR/FEMALE, Target Tissue: Type of Lesion: UTERUS (LEFT): ADENOCARCINOMA, Dose [Carcinogen]: 0.1 MG/KG BW INJECTED INTO LEFT UTERINE TUBE ONCE, Promoter: 17-BETA-ESTRADIOL, 50-28-2): 8/24 (33%), 0/19 (0%), 100%, p<0.01 | tumour outcome (control, treated, inhibition, significance) (Carcinogen: N-METHYL-N;-NITRO-N-NITROSOGUANIDINE, 70-25-7, Carcinogen: N-METHYL-N;-NITRO-N-NITROSOGUANIDINE, 70-25-7, Dose [Inhibitor]: 0, 30 MG/KG 1/2 FOR 26 WK BEGINNING 1 WK POST CARCINOGEN TREATMENT (STUDY DURATION: 52 WK), Route [Inhibitor]: SUBCUTANEOUS, Species: RAT, Strain/Sex: WISTAR/MALE, Target Tissue: Type of Lesion: STOMACH: ADENOCARCINOMA, Dose [Carcinogen]: 25 UG/ML IN DRINKING WATER FOR 25 WK, Promoter: SODIUM CHLORIDE, 7647-14-5): 18/20 (90%), 7/19 (37%), 59%, p<0.05

CCCCCCCCCCCCCCCC(=O)OCC(COC(=O)CCCCCCCCCCCCCCC)OC(=O)CCCCCCCCCCCCCCC
tumour outcome (control, treated, inhibition, significance) (Carcinogen: DIMETHYLBENZANTHRACENE, 57-97-6, Dose [Inhibitor]: APPLIED 3 MIN POST EACH PROMOTER DOSE 3/WK FOR 20 WK BEGINNING 3 D POST CARCINOGEN DOSE (STUDY DURATION: 20 WK), Route [Inhibitor]: DERMAL, Species: MOUSE, Strain/Sex: SWISS/?, Target Tissue: Type of Lesion: SKIN: TUMOR, Dose [Carcinogen]: 250 UG/0.25 ML ONCE, Promoter: CROTON OIL, 8001-28-3): 100%, 25%, 75%, not calculated

C=C(C)C1CC=C(CO)CC1 (stereo not given)
tumour outcome (control, treated, inhibition, significance) (Carcinogen: 4-(METHYLNITROSAMINO)-1-(3-PYRIDYL)-1-BUTANONE, 64091-91-4, Dose [Inhibitor]: 0, 75 MG/KG BW 3/WK FOR 22 WK BEGINNING 1 WK PRIOR TO CARCINOGEN TREATMENT (STUDY DURATION: 23 WK), Route [Inhibitor]: INTRAPERITONEAL, Species: MOUSE, Strain/Sex: C3AF1/MALE, Target Tissue: Type of Lesion: LUNG: TUMOR, Dose [Carcinogen]: 100 MG/KG BW 1/WK FOR 2 WK, Promoter: NONE USED): 100%, 79%, 21%, p<0.005 | tumour outcome (control, treated, inhibition, significance) (Carcinogen: AZOXYMETHANE [25843-45-2], Dose [Inhibitor]: 1 G/KG IN DIET FOR 55 WK BEGINNING 2 WK PRIOR TO FIRST CARCINOGEN DOSE (STUDY DURATION: 55 WK), Route [Inhibitor]: ORAL, Species: RAT, Strain/Sex: F344/MALE, Target Tissue: Type of Lesion: COLON: ADENOCARCINOMA, Dose [Carcinogen]: 15 MG/KG BW 1/WK FOR 2 WK (STUDY DURATION: 55 WK), Promoter: NONE): 78%, 64%, 18%, not significant and 78%, 56%, 29%, p<0.05 | tumour outcome (control, treated, inhibition, significance) (Carcinogen: AZOXYMETHANE [25843-45-2], Dose [Inhibitor]: 1 G/KG IN DIET FOR 55 WK BEGINNING 2 WK PRIOR TO FIRST CARCINOGEN DOSE (STUDY DURATION: 55 WK), Route [Inhibitor]: ORAL, Species: RAT, Strain/Sex: F344/MALE, Target Tissue: Type of Lesion: SMALL INTESTINE: ADENOCARCINOMA, Dose [Carcinogen]: 15 MG/KG BW 1/WK FOR 2 WK (STUDY DURATION: 55 WK), Promoter: NONE): 31%, 28%, 9%, not significant | tumour outcome (control, treated, inhibition, significance) (Carcinogen: AZOXYMETHANE [25843-45-2], Dose [Inhibitor]: 2 G/KG IN DIET FOR 55 WK BEGINNING 2 WK PRIOR TO FIRST CARCINOGEN DOSE (STUDY DURATION: 55 WK), Route [Inhibitor]: ORAL, Species: RAT, Strain/Sex: F344/MALE, Target Tissue: Type of Lesion: SMALL INTESTINE: ADENOCARCINOMA, Dose [Carcinogen]: 15 MG/KG BW 1X/WK FOR 2 WK (STUDY DURATION: 55 WK), Promoter: NONE): 31%, 11%, 64%, p<0.05
